1 compound from patent US20210139902A1, “RNAI TARGET GENE THAT IS HIGHLY LETHAL TO APHIDS AND USE THEREOF” (CAS Center For Excellence in Molecular Plant Sciences, priority 2018, published 2021) can be followed below.

This experiment has as its system green peach aphid. Kind of experiment: Field test of green peach aphid: dsRNA spray compared with imidacloprid. The class given is in vivo, Myzus persicae. To be noted: dsRNA 300 ng/μl in water, 300 μl per plant, imidacloprid 10,000 times solution. The text has this: Control effect (%)=(1−CK0×PT1/CK1×PT0)×100
wherein PT0: the number of insects before drug administration in the treatment area; PT1: the number of insects after drug administration in the treatment area; • CK0: the number of insects before drug administration in the control area; CK1: the number of insects after drug administration in the control area.
the dropping rate of insect population (%)=[(number of insects before drug administration−number of insects after drug administration)/number of insects before drug administration]×100
1. Radish seedlings of 12-15 days, inoculated with 100 insects, stabilized for 1 day, sprayed with dsRNA the next day.
2. The concentration of dsRNA used for spraying was 300 ng/μl. The synthesized dsRNA was dissolved in water and sprayed 300 μl per plant.
3. The concentration of imidacloprid was 10,000 times solution (Germany Bayer Emerald 70% imidacloprid 3 g, water dispersible granules), sprayed 300 μl per plant.
4. The experiment method: spray treatment, 4 replicates for each treatment.

As to `O=[N+]([O-])NC1=NCCN1Cc1ccc(Cl)nc1` [Imidacloprid, imidacloprid], the “Field test of green peach aphid: Control effect, 1 d” value (1 d) is reported as 70.96 ± 4.25 Cc %. The “Field test of green peach aphid: the dropping rate of insect population, 1 d” value (1 d, radish seedlings, 100 insects) turned out to be 37.33 ± 9.65 Bb %. For the setting “3 d”, the “Field test of green peach aphid: Control effect, 3 d” value stood at 93.78 ± 3.14 Cb %. Further, the “Field test of green peach aphid: the dropping rate of insect population, 3 d” value (3 d, radish seedlings, 100 insects) came to 75.83 ± 15.25 Bb %. For the same compound, the “Field test of green peach aphid: Control effect, 5 d” value (5 d) came out at 97.37 ± 1.88 Bb %. The “Field test of green peach aphid: the dropping rate of insect population, 5 d” value (5 d, radish seedlings, 100 insects) is on record as 84.35 ± 9.60 Bb %.
